Assay results from a compilation of properties of binary mixtures (doi:10.1007/s10953-023-01258-3).

Experiment: xn = mol fraction of the nth substance listed
Conditions: 101 kPa

Cn1cc[n+](CCCN)c1.F[B-](F)(F)F + CS(C)=O
Conditions	electrical conductivity [S/m]	viscosity [mPa·s]
288.15 K, x1 = 0.1003	0.829	17.63
288.15 K, x1 = 0.2	0.632	34.87
288.15 K, x1 = 0.2997	0.465	54.65
288.15 K, x1 = 0.3997	0.288	75.94
288.15 K, x1 = 0.4998	0.187	98.4
288.15 K, x1 = 0.5999	0.124	122.2
288.15 K, x1 = 0.7001	0.078	147.4
288.15 K, x1 = 0.8109	0.044	176.7
288.15 K, x1 = 0.8998	0.023	201.6
288.15 K, x1 = 1	0.011	231.2
293.15 K, x1 = 0.1003	0.943	13.32
293.15 K, x1 = 0.2	0.716	26.44
293.15 K, x1 = 0.4998	0.222	76.63
293.15 K, x1 = 0.7001	0.097	116.9
293.15 K, x1 = 0.8109	0.056	140.8
293.15 K, x1 = 1	0.018	185.4
298.15 K, x1 = 0.2	0.81	20.51
298.15 K, x1 = 0.2997	0.609	32.66
298.15 K, x1 = 0.3997	0.395	45.88
298.15 K, x1 = 0.4998	0.268	60.22
298.15 K, x1 = 0.5999	0.186	76.06
298.15 K, x1 = 0.7001	0.122	93.45
298.15 K, x1 = 0.8109	0.072	113.4
298.15 K, x1 = 0.8998	0.046	130.1
303.15 K, x1 = 0.1003	1.22	7.961
303.15 K, x1 = 0.2	0.919	16.1
303.15 K, x1 = 0.3997	0.462	36.37
303.15 K, x1 = 0.4998	0.317	47.87
303.15 K, x1 = 0.5999	0.228	60.72
303.15 K, x1 = 1	0.04	121.1
308.15 K, x1 = 0.1003	1.37	6.38
308.15 K, x1 = 0.2	1.05	13.1
308.15 K, x1 = 0.2997	0.799	20.89
308.15 K, x1 = 0.3997	0.533	29.16
308.15 K, x1 = 0.4998	0.37	38.73
308.15 K, x1 = 0.5999	0.271	49.63
308.15 K, x1 = 0.7001	0.183	61.64
308.15 K, x1 = 0.8998	0.082	87.11
313.15 K, x1 = 0.2	1.17	10.81
313.15 K, x1 = 0.2997	0.894	17.08
313.15 K, x1 = 0.3997	0.617	24.03
313.15 K, x1 = 0.4998	0.435	31.72
313.15 K, x1 = 0.7001	0.221	50.72
313.15 K, x1 = 0.8998	0.105	72.01
313.15 K, x1 = 1	0.072	83.06
318.15 K, x1 = 0.1003	1.71	4.406
318.15 K, x1 = 0.2	1.32	8.853
318.15 K, x1 = 0.2997	1.01	14.22
318.15 K, x1 = 0.4998	0.506	26.45
318.15 K, x1 = 0.5999	0.378	33.63
318.15 K, x1 = 0.8109	0.183	51.83
318.15 K, x1 = 0.8998	0.134	60.04
318.15 K, x1 = 1	0.094	69.26
323.15 K, x1 = 0.1003	1.91	3.679
323.15 K, x1 = 0.2	1.47	7.468
323.15 K, x1 = 0.2997	1.13	11.79
323.15 K, x1 = 0.3997	0.81	16.67
323.15 K, x1 = 0.5999	0.446	28.21
323.15 K, x1 = 0.7001	0.314	35.29
323.15 K, x1 = 0.8109	0.223	43.46
323.15 K, x1 = 0.8998	0.17	50.38
328.15 K, x1 = 0.2997	1.26	10.06
328.15 K, x1 = 0.4998	0.659	18.73
328.15 K, x1 = 0.5999	0.515	24.2
328.15 K, x1 = 0.7001	0.369	30.06
328.15 K, x1 = 0.8109	0.269	37.19
328.15 K, x1 = 0.8998	0.21	43.13
328.15 K, x1 = 1	0.159	50.12
333.15 K, x1 = 0.1003	2.3	2.79
333.15 K, x1 = 0.2	1.78	5.508
333.15 K, x1 = 0.3997	1.04	12.05
333.15 K, x1 = 0.4998	0.749	16.07
333.15 K, x1 = 0.5999	0.593	20.41
333.15 K, x1 = 0.7001	0.431	25.32
333.15 K, x1 = 0.8109	0.323	31.21
333.15 K, x1 = 0.8998	0.258	36.19
333.15 K, x1 = 1	0.203	42.31
338.15 K, x1 = 0.1003	2.53	2.4
338.15 K, x1 = 0.2	1.97	4.865
338.15 K, x1 = 0.2997	1.55	7.311
338.15 K, x1 = 0.4998	0.849	13.77
338.15 K, x1 = 0.5999	0.682	17.48
338.15 K, x1 = 0.7001	0.496	21.74
338.15 K, x1 = 0.8998	0.312	31.24
343.15 K, x1 = 0.2	2.17	4.241
343.15 K, x1 = 0.2997	1.71	6.401
343.15 K, x1 = 0.3997	1.3	8.856
343.15 K, x1 = 0.4998	0.948	11.78
343.15 K, x1 = 0.7001	0.572	19.03
343.15 K, x1 = 0.8109	0.449	23.52
343.15 K, x1 = 0.8998	0.374	27.44
343.15 K, x1 = 1	0.308	32.15
348.15 K, x1 = 0.1003	3.02	2.048
348.15 K, x1 = 0.2	2.37	3.722
348.15 K, x1 = 0.2997	1.88	5.565
348.15 K, x1 = 0.3997	1.46	7.954
348.15 K, x1 = 0.4998	1.07	10.3
348.15 K, x1 = 0.5999	0.877	13.38
348.15 K, x1 = 0.7001	0.656	16.16
348.15 K, x1 = 0.8109	0.524	20.12
348.15 K, x1 = 0.8998	0.445	23.5
348.15 K, x1 = 1	0.374	27.51
353.15 K, x1 = 0.1003	3.27	1.997
353.15 K, x1 = 0.2	2.58	3.564
353.15 K, x1 = 0.2997	2.07	5.199
353.15 K, x1 = 0.4998	1.19	9.541
353.15 K, x1 = 0.5999	0.978	12.09
353.15 K, x1 = 0.7001	0.749	14.98
353.15 K, x1 = 0.8109	0.608	18.65
353.15 K, x1 = 0.8998	0.522	21.71
353.15 K, x1 = 1	0.457	25.41

CS(C)=O + Cn1cc[n+](CCCN)c1.F[B-](F)(F)F
x2 = 0
Conditions	viscosity [mPa·s]
288.15 K	2.605
293.15 K	2.318
298.15 K	2.089
303.15 K	1.886
308.15 K	1.717
313.15 K	1.575
318.15 K	1.447
323.15 K	1.341
333.15 K	1.164
338.15 K	1.097
343.15 K	1.034
348.15 K	0.981
353.15 K	0.934
